A short description of the experiment: Binding affinity to Influenza A virus PA endonuclease I39T mutant assessed as dissociation constant by MST assay.

In general, Kd refers to the equilibrium constant for the complex coming apart.

Structures are written as SMILES.

`COc1cnccc1CCNC(=O)c1nc(-c2ccccc2C(F)(F)F)[nH]c(=O)c1O`: the Kd came out at 32 nM.

For `O=C1c2c(O)c(=O)ccn2N([C@@H]2c3ccccc3SCc3c2ccc(F)c3F)C2COCCN12` (stereo partly drawn), the Kd was 9300 nM.

Take `Nc1ncnc2c1ncn2CCNC(=O)c1nc(-c2ccccc2C(F)(F)F)[nH]c(=O)c1O`: the Kd amounted to 16 nM.

Values taken from ChEMBL document CHEMBL5331099, “Chemical scaffold recycling: Structure-guided conversion of an HIV integrase inhibitor into a potent influenza virus RNA-dependent RNA polymerase inhibitor designed to minimize resistance potential” (Eur J Med Chem, 2023).
